US20230040770A1, “HETEROCYCLIC COMPOUND AND USE THEREOF” (TAKEDA PHARMACEUTICAL COMPANY LIMITED, priority 2019, published 2023)

Biological target: T1, human orexin type 2 receptor (Homo sapiens, UniProt O43614)
T1 construct: expressed in transfected cells
T1 sequence (O43614 1-444): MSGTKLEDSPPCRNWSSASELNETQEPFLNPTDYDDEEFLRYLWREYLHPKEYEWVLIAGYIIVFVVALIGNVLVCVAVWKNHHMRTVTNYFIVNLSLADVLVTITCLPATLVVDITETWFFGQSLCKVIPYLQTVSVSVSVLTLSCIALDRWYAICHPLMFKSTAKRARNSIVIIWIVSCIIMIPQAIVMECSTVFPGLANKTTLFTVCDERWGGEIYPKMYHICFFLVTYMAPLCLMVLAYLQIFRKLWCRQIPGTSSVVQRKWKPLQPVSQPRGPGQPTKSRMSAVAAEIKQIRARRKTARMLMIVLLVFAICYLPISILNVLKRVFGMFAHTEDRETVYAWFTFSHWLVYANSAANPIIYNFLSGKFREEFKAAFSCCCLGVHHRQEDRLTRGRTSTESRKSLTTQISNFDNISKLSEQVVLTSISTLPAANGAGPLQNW
Experiment: Measurement of orexin type 2 receptor agonist activity (calcium indicator fluorescence, CHO cells forcibly expressing human OX2 receptor)
Type: cell-based
Conditions: compound at 3 μM; 0% = DMSO, 100% = orexin A (human) 10 nM
Summary of the method: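 CHO-dhfr cells stably expressing human OX2R, loaded with Fluo-4 AM (30 min 37 °C, then 30 min RT), then given test compound. Calcium fluorescence read by FDSS over ~2 min. Activity (%) scaled from DMSO (0%) to 10 nM final orexin A (100%).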

| SMILES | OX2R agonist activity (3 μM, %) |
| --- | --- |
| CS(=O)(=O)N[C@@H]1[C@H](Cc2cccc(-c3cc(F)ccc3F)c2F)N(C(=O)[C@H]2CCO2)CC1(F)F [Example 122, N-{(2S,3R)-4,4-difluoro-1-((2R)-oxetane-2-carbonyl)-2-[(2,2′,5′-trifluoro[1,1′-biphenyl-]-3-yl)methyl]pyrrolidin-3-yl}methanesulfonamide] | 89% |
| CCS(=O)(=O)N[C@H]1[C@@H](F)CN(C(=O)N(C)C)[C@H]1Cc1cccc(-c2cccc(Cl)c2)c1F [Example 332, (2S,3R,4S)-2-[(3′-chloro-2-fluoro[1,1′-biphenyl]-3-yl)methyl]-3-[(ethanesulfonyl)amino]-4-fluoro-N,N-dimethylpyrrolidine-1-carboxamide] | 95% |
| CS(=O)(=O)N[C@@H]1[C@H](Cc2cccc(-c3ccccc3)c2F)N(C(=O)[C@H]2CCCO2)CC1(F)F [Example 73, N-{(2S,3R)-4,4-difluoro-2-[(2-fluoro[1,1′-biphenyl]-3-yl)methyl]-1-[(2R)-oxolane-2-carbonyl]pyrrolidin-3-yl}methanesulfonamide] | 104% |
| O=C(C1CCO1)N1C[C@H](F)[C@H](NS(=O)(=O)C2CC2)[C@@H]1Cc1cccc(-c2cccc(F)c2)c1F (stereo partly drawn) [Example 385, N-[(2S,3R,4S)-2-[(2,3′-difluoro[1,1′-biphenyl]-3-yl)methyl]-4-fluoro-1-(oxetane-2-carbonyl)pyrrolidin-3-yl]cyclopropanesulfonamide] | 95% |
| O=C(C1CC1)N1C[C@H](F)[C@H](NS(=O)(=O)C2CC2)[C@@H]1Cc1cccc(-c2cccc(F)c2)c1F [Example 372, N-{(2S,3R,4S)-1-(cyclopropanecarbonyl)-2-[(2,3′-difluoro[1,1′-biphenyl]-3-yl)methyl]-4-fluoropyrrolidin-3-yl}cycloproapnesulfonamide] | 89% |
| CCS(=O)(=O)N[C@H]1[C@@H](F)CN(C(=O)C2CCO2)[C@H]1Cc1cccc(-c2cc(F)cc(F)c2)c1F (stereo partly drawn) [Example 305, N-{(2S,3R,4S)-4-fluoro-1-(oxetane-2-carbonyl)-2-[(2,3′,5′-trifluoro[1,1′-biphenyl]-3-yl)methyl]pyrrolidin-3-yl}ethanesulfonamide] | 103% |
| Cc1cccc(-c2cccc(C[C@H]3[C@@H](NS(=O)(=O)N(C)C)C(F)(F)CN3C(=O)N3CCC3)c2F)c1F [Example 545, N′-{(2S,3R)-1-(azetidine-1-carbonyl)-2-[(2,2′-difluoro-3′-methyl[1,1′-biphenyl]-3-yl)methyl]-4,4-difluoropyrrolidin-3-yl}-N,N-dimethylsulfuric diamide] | 93% |
| CCS(=O)(=O)N[C@H]1[C@@H](F)CN(C(=O)C(C)(C)O)[C@H]1Cc1cccc(-c2cccc(F)c2F)c1F [Example 222, N-{(2S,3R,4S)-4-fluoro-1-(2-hydroxy-2-methylpropanoyl)-2-[(2,2′,3′-trifluoro[1,1′-biphenyl]-3-yl)methyl]pyrrolidin-3-yl}ethanesulfonamide] | 97% |
| Cc1cc(F)cc(-c2cccc(C[C@H]3[C@@H](NS(=O)(=O)C4CC4)C(F)(F)CN3C(=O)N(C)C)c2F)c1 [Example 522, (2S,3R)-3-[(cyclopropanesulfonyl)amino]-2-[(2,3′-difluoro-5′-methyl[1,1′-biphenyl]-3-yl)methyl]-4,4-difluoro-N,N-dimethylpyrrolidine-1-carboxamide] | 97% |
| CCS(=O)(=O)N[C@@H]1[C@H](Cc2cccc(-c3cccc(OC)c3)c2F)N(C(=O)C23CC(C2)C3)CC1(F)F [Example 510, N-{(2S,3R)-1-(bicyclo[1.1.1]pentane-1-carbonyl)-4,4-difluoro-2-[(2-fluoro-3′-methoxy[1,1′-biphenyl]-3-yl)methyl]pyrrolidin-3-yl}ethanesulfonamdie] | 97% |
| CCS(=O)(=O)N[C@H]1[C@@H](F)CN(C(=O)C(C)C)[C@H]1Cc1cccc(-c2ccccc2)c1F [Example 293, N-[(2S,3R,4S)-4-fluoro-2-[(2-fluoro[1,1′-biphenyl]-3-yl)methyl]-1-(2-methylpropanoyl)pyrrolidin-3-yl]ethanesulfonamide] | 83% |
| Cc1cc(F)cc(-c2cccc(C[C@H]3[C@@H](NS(=O)(=O)N(C)C)C(F)(F)CN3C(=O)N(C)C)c2F)c1 [Example 526, (2S,3R)-2-[(2,3′-difluoro-5′-methyl[1,1′-biphenyl]-3-yl)methyl]-3-[(dimethyslulfamoyl)amino]-4,4-difluoro-N,N-dimethylpyrrolidine-1-carboxamide] | 83% |
| CS(=O)(=O)N[C@@H]1[C@H](Cc2cccc(-c3cc(F)cc(Cl)c3)c2F)N(C(=O)C2CCO2)CC1(F)F (stereo partly drawn) [Example 266, N-[(2S,3R)-2-[(3′-chloro-2,5′-difluoro[1,1′-biphenyl]-3-yl)methyl]-4,4-difluoro-1-(oxetane-2-carbonyl)pyrrolidin-3-yl]methanesulfonamide] | 83% |
| CCS(=O)(=O)N[C@H]1[C@@H](F)CN(C(=O)C2CCO2)[C@H]1Cc1cccc(-c2cc(C)ccc2F)c1F (stereo partly drawn) [Example 502, N-[(2S,3R,4S)-2-[(2,2′-difluoro-5′-methyl[1,1′-biphenyl]-3-yl)methyl]-4-fluoro-1-(oxetane-2-carbonyl)pyrrolidin-3-yl]ethanesulfonamide] | 96% |
| CCS(=O)(=O)N[C@@H]1[C@H](Cc2cccc(-c3ccc(F)c(F)c3)c2F)N(C(=O)C2CCO2)CC1(F)F (stereo partly drawn) [Example 468, N-{(2S,3R)-4,4-difluoro-1-(oxetane-2-carbonyl)-2-[(2,3′,4′-trifluoro[1,1′-biphenyl]-3-yl)methyl]pyrrolidin-3-yl}ethanesulfonamide] | 102% |
| CN(C)S(=O)(=O)N[C@@H]1[C@H](Cc2cccc(-c3cccc(F)c3F)c2F)N(C(=O)C2(O)CCC2)CC1(F)F [Example 438, N′-{(2S,3R)-4,4-difluroo-1-(1-hydroxycyclobutane-1-carbonyl)-2-[(2,2′,3′-trifluoro[1,1′-biphenyl]-3-yl)methyl]pyrrolidin-3-yl}-N,N-dimethylsulfuric diamide] | 95% |
| Cc1cc(F)cc(-c2cccc(C[C@H]3[C@@H](NS(=O)(=O)C4CC4)[C@@H](F)CN3C(=O)C3CCO3)c2F)c1 (stereo partly drawn) [Example 486, N-[(2S,3R,4S)-2-[(2,3′-difluoro-5′-methyl[1,1′-biphenyl]-3-yl)methyl]-4-fluoro-1-(oxetane-2-carbonyl)pyrrolidin-3-yl]cyclopropanesulfonamide] | 88% |
| O=C(C1CCO1)N1C[C@H](F)[C@H](NS(=O)(=O)C2CC2)[C@@H]1Cc1cccc(-c2cccc(Cl)c2)c1F (stereo partly drawn) [Example 497, N-[(2S,3R,4S)-2-[(3′-chloro-2-fluoro[1,1′-biphenyl]-3-yl)methyl]-4-fluoro-1-(oxetane-2-carbonyl)pyrrolidin-3-yl]cyclopropanesulfonamide] | 91% |
| CN(C)C(=O)N1CC(F)(F)[C@H](NS(=O)(=O)C2CC2)[C@@H]1Cc1cccc(-c2cccc(F)c2)c1F [Example 523, (2S,3R)-3-[(cyclopropanesulfonyl)amino]-2-[(2,3′-difluoro[1,1′-biphenyl]-3-yl)methyl]-4,4-difluoro-N,N-dimethylpyrrolidine-1-carboxamide] | 86% |
| Cc1ccc(F)c(-c2cccc(C[C@H]3[C@@H](NS(=O)(=O)C4CC4)[C@@H](F)CN3C(=O)C3CCO3)c2F)c1 (stereo partly drawn) [Example 492, N-[(2S,3R,4S)-2-[(2,2′-difluoro-5′-methyl[1,1′-biphenyl]-3-yl)methyl]-4-fluoro-1-(oxetane-2-carbonyl)pyrrolidin-3-yl]cyclopropanesulfonamide] | 90% |
| CC(C)C(=O)N1CC(F)(F)[C@H](NS(=O)(=O)C2CC2)[C@@H]1Cc1cccc(-c2cccc(F)c2)c1F [Example 163, N-[(2S,3R)-2-[(2,3′-difluoro[1,1′-biphenyl]-3-yl)methyl]-4,4-difluoro-1-(2-methylpropanoyl)pyrrolidin-3-yl]cyclopropanesulfonamide] | 105% |
| CCS(=O)(=O)N[C@H]1[C@@H](F)CN(C(=O)[C@H]2CCCO2)[C@H]1Cc1cccc(-c2ccccc2)c1F [Example 413, N-{(2S,3R,4S)-4-fluoro-2-[(2-fluoro[1,1′-biphenyl]-3-yl)methyl]-1-[(2R)-oxolane-2-carbonyl]pyrrolidin-3-yl}ethanesulfonamide] | 99% |
| CCS(=O)(=O)N[C@@H]1[C@H](Cc2cccc(-c3cccc(F)c3)c2F)N(C(=O)C2(O)CCC2)CC1(F)F [Example 273, N-[(2S,3R)-2-[(2,3′-difluoro[1,1′-biphenyl]-3-yl)methyl]-4,4-difluoro-1-(1-hydroxycyclobutane-1-carbonyl)pyrrolidin-3-yl]ethanesulfonamide] | 83% |
